{"source": "patent US12540141B2", "about": "“Spiropyrrolidine derived antiviral agents” (priority 2020, dated 2026)"}
{"biological_target": "SARS-CoV-2 3CL-protease (Severe acute respiratory syndrome coronavirus 2, UniProt P0DTD1)", "test": "SARS-CoV-2 3C-Like (3CL) Protease Fluorescence Assay (FRET)", "assay_type": "biochemical", "settings": "SARS-CoV-2 3CL-protease 10 nM, 30 min preincubation at RT, substrate 40 μM", "units": {"IC50": "µM"}}
{"compound": "CC(C)C[C@@H](C(=O)N1C[C@]2(C[C@H]1C#N)C(=O)Nc1ccccc12)N(C)C(=O)c1cc(F)c2nc(C3CC3)[nH]c2c1", "note": "[Example 340]", "IC50": "0.1 to 1"}
{"compound": "CC(C)C[C@@H](C(=O)N1C[C@]2(C[C@H]1C#N)C(=O)Nc1ccccc12)N(C)C(=O)c1cc2cc(C#N)ccc2[nH]1", "note": "[Example 327]", "IC50": "< 0.1"}
{"compound": "CC(C)C[C@@H](C(=O)N1C[C@]2(C[C@H]1C#N)C(=O)Nc1ccccc12)N(C)C(=O)c1cnc2cccnc2c1", "note": "[Example 302]", "IC50": "0.1 to 1"}
{"compound": "CC(C)C[C@H](NC(=O)c1ccc(-c2ccccc2)[nH]1)C(=O)N1C[C@]2(C[C@H]1C#N)C(=O)Nc1ccccc12", "note": "[Example 151]", "IC50": "> 1"}
{"compound": "CC(C)C[C@@H](C(=O)N1C[C@]2(C[C@H]1C#N)C(=O)Nc1ccccc12)N(C)C(=O)c1cccc2ccncc12", "note": "[Example 293]", "IC50": "< 0.1"}
{"compound": "[2H]C([2H])([2H])N(C(=O)c1nnn2ccccc12)[C@@H](CCCC)C(=O)N1C[C@]2(C[C@H]1C#N)C(=O)Nc1ccccc12", "note": "[Example 397]", "IC50": "< 0.1"}
{"compound": "CCN(CC)CCC(=O)N(C)[C@@H](CC(C)(C)F)C(=O)N1C[C@]2(C[C@H]1C#N)C(=O)Nc1ccccc12", "note": "[Example 544]", "IC50": "< 0.1"}
{"compound": "[2H]C([2H])([2H])N(C(=O)c1cn(C2CCC2)nn1)[C@@H](CC(C)(C)C)C(=O)N1C[C@]2(C[C@H]1C#N)C(=O)Nc1ccccc12", "note": "[Example 379]", "IC50": "< 0.1"}
{"compound": "CC(C)C[C@@H](C(=O)N1C[C@]2(C[C@H]1C#N)C(=O)Nc1ccccc12)N(C)C(=O)c1ccc2ncccc2n1", "note": "[Example 303]", "IC50": "< 0.1"}
{"compound": "CC(C)C[C@@H](C(=O)N1C[C@]2(C[C@H]1C#N)C(=O)Nc1ccccc12)N(C)C(=O)c1cncc(C(F)(F)F)c1", "note": "[Example 195]", "IC50": "< 0.1"}
{"compound": "CC(C)C[C@@H](C(=O)N1C[C@]2(C[C@H]1C#N)C(=O)Nc1ccccc12)N(C)C(=O)c1cc2ccc(Br)cc2cn1", "note": "[Example 236]", "IC50": "0.1 to 1"}
{"compound": "[2H]C([2H])([2H])N(C(=O)c1cc(OC(F)F)c2ncccc2c1)[C@@H](CC(C)(C)C)C(=O)N1C[C@]2(C[C@H]1C#N)C(=O)Nc1ccccc12", "note": "[Example 383]", "IC50": "< 0.1"}
{"compound": "CC(C)C[C@@H](C(=O)N1C[C@]2(C[C@H]1C#N)C(=O)Nc1ccccc12)N(C)C(=O)c1ccc2ncccc2c1F", "note": "[Example 330]", "IC50": "< 0.1"}
{"compound": "N#C[C@@H]1C[C@@]2(CN1C(=O)[C@H](CC1CC1)NC(=O)c1c(Cl)cccc1Cl)C(=O)Nc1ccc(F)cc12", "note": "[Example 522]", "IC50": "0.1 to 1"}
{"compound": "CC(C)C[C@@H](C(=O)N1C[C@]2(C[C@H]1C(=O)CO)C(=O)Nc1ccccc12)N(C)C(=O)c1cc2c(F)cc(F)cc2[nH]1", "note": "[Example 157]", "IC50": "> 1"}
{"compound": "CC(C)(C)C[C@H](NC(=O)OC(C)(C)c1ccc(F)cc1)C(=O)N1C[C@]2(C[C@H]1C#N)C(=O)Nc1ccc(Cl)cc12", "note": "[Example 496]", "IC50": "> 1"}
{"compound": "CN(C(=O)c1cnc(C(C)(C)C)[nH]1)[C@@H](CC1CC1)C(=O)N1C[C@]2(C[C@H]1C#N)C(=O)Nc1ccccc12", "note": "[Example 410]", "IC50": "< 0.1"}
{"compound": "CC(C)(C)C[C@H](NC(=O)c1cc2c(Cl)cccc2[nH]1)C(=O)N1C[C@]2(C[C@H]1C#N)C(=O)Nc1ccc(Cl)cc12", "note": "[Example 450]", "IC50": "< 0.1"}
{"compound": "[2H]C([2H])([2H])N(C(=O)c1cc(OC(F)(F)F)c2ncccc2c1)[C@@H](CC(C)(C)C)C(=O)N1C[C@]2(C[C@H]1C#N)C(=O)Nc1ccccc12", "note": "[Example 382]", "IC50": "< 0.1"}
{"compound": "CC(C)C[C@@H](C(=O)N1C[C@]2(C[C@H]1C#N)C(=O)Nc1ccccc12)N(C)C(=O)c1cc(OC2CC2)c2nc(C3CC3)sc2c1", "note": "[Example 317]", "IC50": "< 0.1"}
{"compound": "C[C@@H](OC(=O)N[C@@H](CC(C)(C)C)C(=O)N1C[C@]2(C[C@H]1C#N)C(=O)Nc1ccc(Cl)cc12)c1ccc(F)cc1", "note": "[Example 495]", "IC50": "< 0.1"}
{"compound": "CC(C)C[C@@H](C(=O)N1C[C@]2(C[C@H]1C#N)C(=O)Nc1ccccc12)N(C)C(=O)c1ccc(Cl)cc1", "note": "[Example 163]", "IC50": "0.1 to 1"}
{"compound": "CC(C)C[C@@H](C(=O)N1C[C@]2(C[C@H]1C#N)C(=O)Nc1ccccc12)N(C)C(=O)/C=C/c1ccccc1", "note": "[Example 228]", "IC50": "< 0.1"}
{"compound": "CC(C)C[C@@H](C(=O)N1C[C@]2(C[C@H]1C#N)C(=O)Nc1ccccc12)N(C)C(=O)Cc1ccccc1", "note": "[Example 226]", "IC50": "< 0.1"}
{"compound": "[2H]C([2H])([2H])N(C(=O)c1cn(C(C)(C)C)nn1)[C@@H](CCCC)C(=O)N1C[C@]2(C[C@H]1C#N)C(=O)Nc1ccccc12", "note": "[Example 393]", "IC50": "< 0.1"}
{"compound": "CC(C)C[C@@H](C(=O)N1C[C@]2(C[C@H]1C#N)C(=O)Nc1ccccc12)N(C)C(=O)COc1ccccc1", "note": "[Example 229]", "IC50": "< 0.1"}
{"compound": "CC(C)C[C@@H](C(=O)N1C[C@]2(C[C@H]1C#N)C(=O)Nc1ccccc12)N(C)C(=O)c1cnn(C(C)(C)C)c1", "note": "[Example 352]", "IC50": "< 0.1"}
{"compound": "CC(C)C[C@@H](C(=O)N1C[C@]2(C[C@H]1C#N)C(=O)Nc1ccccc12)N(C)C(=O)c1ccc(F)c(-c2ccccc2)c1", "note": "[Example 272]", "IC50": "0.1 to 1"}
{"compound": "COc1ccc(C(=O)N(C)[C@@H](CC(C)C)C(=O)N2C[C@]3(C[C@H]2C#N)C(=O)Nc2ccccc23)cc1F", "note": "[Example 182]", "IC50": "< 0.1"}
{"compound": "CN(C(=O)c1cc2cccnc2[nH]1)[C@@H](CC1CC1)C(=O)N1C[C@]2(C[C@H]1C#N)C(=O)Nc1ccc(Cl)cc12", "note": "[Example 459]", "IC50": "< 0.1"}
{"compound": "CN(C(=O)CCN1CCCCC1)[C@@H](CC(C)(C)F)C(=O)N1C[C@]2(C[C@H]1C#N)C(=O)Nc1ccccc12", "note": "[Example 542]", "IC50": "< 0.1"}
{"compound": "CC(C)C[C@@H](C(=O)N1C[C@]2(C[C@H]1C=O)C(=O)Nc1ccccc12)N(C)C(=O)c1cc2c(F)cc(F)c(F)c2[nH]1", "note": "[Example 150]", "IC50": "< 0.1"}
{"compound": "CC(C)C[C@@H](C(=O)N1C[C@]2(C[C@H]1C#N)C(=O)Nc1ccccc12)N(C)C(=O)c1ccc2cnccc2c1", "note": "[Example 216]", "IC50": "< 0.1"}
{"compound": "CN(C(=O)c1cnn(C2CCCCC2)c1)[C@@H](CC1CC1)C(=O)N1C[C@]2(C[C@H]1C#N)C(=O)Nc1ccccc12", "note": "[Example 411]", "IC50": "< 0.1"}
{"compound": "CC(C)C[C@@H](C(=O)N1C[C@]2(C[C@H]1C#N)C(=O)Nc1ccccc12)N(C)C(=O)c1cccc(F)c1Cl", "note": "[Example 164]", "IC50": "< 0.1"}
{"compound": "N#C[C@@H]1C[C@@]2(CN1C(=O)[C@H](CC1CC1)NC(=O)OCc1ccc(F)cc1F)C(=O)Nc1ccc(Cl)cc12", "note": "[Example 493]", "IC50": "< 0.1"}
{"compound": "CC(C)C[C@@H](C(=O)N1C[C@]2(C[C@H]1C#N)C(=O)Nc1ccccc12)N(C)C(=O)c1ccc2c(c1)OC(F)(F)O2", "note": "[Example 190]", "IC50": "0.1 to 1"}
{"compound": "[2H]C([2H])([2H])N(C(=O)c1cnn(-c2ccc(C(F)(F)F)cc2)c1)[C@@H](CC1CC1)C(=O)N1C[C@]2(C[C@H]1C#N)C(=O)Nc1ccccc12", "note": "[Example 396]", "IC50": "< 0.1"}
{"compound": "CC(C)C[C@@H](C(=O)N1C[C@]2(C[C@H]1C#N)C(=O)Nc1ccccc12)N(C)C(=O)c1cn(-c2ccccc2)nn1", "note": "[Example 338]", "IC50": "< 0.1"}
{"compound": "CC(C)C[C@H](NC(=O)c1cc2c(F)cccc2[nH]1)C(=O)N1C[C@]2(C[C@H]1C#N)C(=O)Nc1cc(F)ccc12", "note": "[Example 530]", "IC50": "< 0.1"}
{"compound": "C[C@@H]1COC[C@H](C)N1CCC(=O)N(C)[C@@H](CC(C)(C)F)C(=O)N1C[C@]2(C[C@H]1C#N)C(=O)Nc1ccccc12", "note": "[Example 546]", "IC50": "< 0.1"}
{"compound": "[2H]C([2H])([2H])N(C(=O)c1cnn(C(C)(C)C)c1C(F)(F)F)[C@@H](CC1CC1)C(=O)N1C[C@]2(C[C@H]1C#N)C(=O)Nc1ccccc12", "note": "[Example 400]", "IC50": "< 0.1"}
{"compound": "C=C(C)c1ccc2c(c1)[C@@]1(C[C@@H](C#N)N(C(=O)[C@H](CC(C)C)N(C)C(=O)c3cc4c(F)cc(F)cc4[nH]3)C1)C(=O)N2", "note": "[Example 498, N—((S)-1-((3R,5′S)-5′-cyano-2-oxo-5-(prop-1-en-2-yl)spiro[indoline-3,3′-pyrrolidin]-1′-yl)-4-methyl-1-oxopentan-2-yl)-4,6-difluoro-N-methyl-1H-indole-2-carboxamide]", "IC50": "< 0.1"}
{"compound": "CC(C)C[C@@H](C(=O)N1C[C@]2(C[C@H]1C#N)C(=O)Nc1ccccc12)N(C)C(=O)c1cncc(F)c1", "note": "[Example 196]", "IC50": "< 0.1"}
{"compound": "CN(C(=O)C(F)(F)c1ccccn1)[C@@H](CC(C)(C)F)C(=O)N1C[C@]2(C[C@H]1C#N)C(=O)Nc1ccc(Cl)cc12", "note": "[Example 481]", "IC50": "< 0.1"}
{"compound": "CC(C)C[C@@H](C(=O)N1C[C@]2(C[C@H]1C#N)C(=O)Nc1ccccc12)N(C)C(=O)c1cncc2ccccc12", "note": "[Example 295]", "IC50": "< 0.1"}
{"compound": "CC(C)C[C@@H](C(=O)N1C[C@]2(C[C@H]1C#N)C(=O)Nc1ccccc12)N(C)C(=O)[C@H]1CCN(C(=O)OC(C)(C)C)C1", "note": "[Example 344]", "IC50": "0.1 to 1"}
{"compound": "CN(C(=O)[C@H](O)c1ccccc1F)[C@@H](CC1CC1)C(=O)N1C[C@]2(C[C@H]1C#N)C(=O)Nc1ccccc12", "note": "[Example 425]", "IC50": "< 0.1"}
{"compound": "CC(C)(C)C[C@H](NC(=O)c1ccc2ncc(C3CC3)cc2c1)C(=O)N1C[C@]2(C[C@H]1C#N)C(=O)Nc1ccccc12", "note": "[Example 136]", "IC50": "< 0.1"}
{"compound": "Cc1ccc2cc(C(=O)N(C)[C@@H](CC(C)C)C(=O)N3C[C@]4(C[C@H]3C#N)C(=O)Nc3ccccc34)cc(OC3CC3)c2n1", "note": "[Example 321]", "IC50": "< 0.1"}
{"compound": "COc1cc(C(=O)N(C)[C@@H](CC(C)C)C(=O)N2C[C@]3(C[C@H]2C#N)C(=O)Nc2ccccc23)nc2ccccc12", "note": "[Example 258]", "IC50": "0.1 to 1"}
{"compound": "CC(C)C[C@@H](C(=O)N1C[C@]2(C[C@H]1C#N)C(=O)Nc1ccc(N=[N+]=[N-])cc12)N(C)C(=O)c1cc2c(F)cc(F)cc2[nH]1", "note": "[Example 503, N—((S)-1-((3R,5′S)-5-azido-5′-cyano-2-oxospiro[indoline-3,3′-pyrrolidin]-1′-yl)-4-methyl-1-oxopentan-2-yl)-4,6-difluoro-N-methyl-1H-indole-2-carboxamide]", "IC50": "< 0.1"}
{"compound": "CC(C)C[C@@H](C(=O)N1C[C@]2(C[C@H]1C#N)C(=O)Nc1ccccc12)N(C)C(=O)c1ccc2ncc(C(F)(F)F)cc2c1", "note": "[Example 237]", "IC50": "< 0.1"}
{"compound": "Cc1ccc2cc(C(=O)N(C)[C@@H](CC(C)C)C(=O)N3C[C@]4(C[C@H]3C#N)C(=O)Nc3ccc(Cl)cc34)[nH]c2n1", "note": "[Example 469]", "IC50": "< 0.1"}
{"compound": "CC(C)C[C@@H](C(=O)N1C[C@]2(C[C@H]1C#N)C(=O)Nc1ccccc12)N(C)C(=O)[C@H](c1cnn(C)c1)C(C)C", "note": "[Example 349]", "IC50": "< 0.1"}
{"compound": "COc1ccc2[nH]c(C(=O)N(C)[C@@H](CC(C)C)C(=O)N3C[C@]4(C[C@H]3C#N)C(=O)Nc3ccccc34)nc2c1", "note": "[Example 249]", "IC50": "< 0.1"}
